Tests used:
[1] = biological target: T1, human mGluR3 (hmGluR3) (Homo sapiens, UniProt Q14832); assay: Human mGluR3 positive allosteric modulator evaluation using Ca++ functional assay; format: cell-based; details: hmGluR3 transiently over-expressed in HEK-293 cells; stimulated by EC50 glutamate concentration; intracellular Ca2+ (Fluo4AM, FLIPR Tetra)
T1 construct: expressed in transfected cells; host or cells: HEK-293 cells, transient co-transfection by electroporation
How it was run: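 Calcium flux (Fluo4, ex 485/em 525 nm) recorded first 10 min with compound alone, then 3 min after an EC50 glutamate challenge, giving agonist and PAM EC50 from 20-concentration sigmoidal fits. Receptor was transiently co-transfected in HEK-293 with chimeric G protein and glutamate transporters.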

T1 sequence (Q14832 23-879): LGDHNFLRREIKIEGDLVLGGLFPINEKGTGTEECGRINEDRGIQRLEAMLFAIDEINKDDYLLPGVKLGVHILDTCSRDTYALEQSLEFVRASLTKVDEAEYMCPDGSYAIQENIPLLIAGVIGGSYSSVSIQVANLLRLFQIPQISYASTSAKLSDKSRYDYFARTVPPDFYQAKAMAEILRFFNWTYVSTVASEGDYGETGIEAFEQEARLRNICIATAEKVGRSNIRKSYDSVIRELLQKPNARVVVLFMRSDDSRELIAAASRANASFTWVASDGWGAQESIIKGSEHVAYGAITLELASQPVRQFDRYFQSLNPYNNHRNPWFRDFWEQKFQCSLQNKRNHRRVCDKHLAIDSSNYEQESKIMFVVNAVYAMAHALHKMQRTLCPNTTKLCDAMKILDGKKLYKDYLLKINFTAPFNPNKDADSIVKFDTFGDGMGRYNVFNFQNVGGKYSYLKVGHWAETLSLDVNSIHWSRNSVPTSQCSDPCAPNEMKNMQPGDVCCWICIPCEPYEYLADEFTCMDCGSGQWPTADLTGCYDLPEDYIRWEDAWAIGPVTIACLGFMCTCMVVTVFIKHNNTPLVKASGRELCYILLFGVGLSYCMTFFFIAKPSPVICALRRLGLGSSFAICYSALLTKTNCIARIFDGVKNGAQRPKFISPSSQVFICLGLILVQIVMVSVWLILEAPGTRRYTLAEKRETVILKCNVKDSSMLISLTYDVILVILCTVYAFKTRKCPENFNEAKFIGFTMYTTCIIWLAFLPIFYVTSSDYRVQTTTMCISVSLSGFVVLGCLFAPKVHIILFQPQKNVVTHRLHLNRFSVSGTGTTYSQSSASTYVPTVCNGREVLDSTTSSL

SMILES | EC50 [1] | melting point
CN1C(=O)c2cccn2-c2cc(-c3cccc(F)n3)ccc2C12CC2 [Example 67, 5-Methyl-9-(6-fluoropyridin-2-yl)-spiro[benzo[f]pyrrolo[1,2-a][1,4]diazepine-6,1′-cyclopropan]-4(5H)-one] | 100 to 1000 nM | 106 to 117 °C
CN1C(=O)c2cc(-c3ccccc3)nn2-c2cc(-c3cnco3)ccc2C12CC2 [Example 132, 9-(Oxazol-5-yl)-5-methyl-2-phenyl-spiro[benzo[f]pyrazolo[1,5-a][1,4]diazepine-6,1′-cyclopropan]-4(5H)-one] | 100 to 1000 nM | 214 to 220 °C
CN1C(=O)c2cccn2-c2cc(-c3ncccc3F)ccc2C12CC2 [Example 66, 5-Methyl-9-(3-fluoropyridin-2-yl)-spiro[benzo[f]pyrrolo[1,2-a][1,4]diazepine-6,1′-cyclopropan]-4(5H)-one] | > 1000 nM | 102 to 118 °C
Cc1ncccc1-c1ccc2c(c1)-n1cc(-c3nnco3)cc1C(=O)N(C)C21CC1 [Example 185] | < 100 nM | > 250 °C
COc1ncccc1-c1ccc2c(c1)-n1cc(-c3ccccc3)cc1C(=O)N(C)C21CC1 [Example 116, 5-Methyl-2-phenyl-9-(2-methoxy-pyridin-3-yl)-spiro[benzo[f]pyrrolo[1,2-a][1,4]diazepine-6,1′-cyclopropan]-4(5H)-one] | 100 to 1000 nM | 183 to 186 °C
CN1C(=O)c2cc(-c3ccccc3)nn2-c2cc(-c3cn[nH]c3)ccc2C12CC2 [Example 134, 9-(1H-pyrazol-4-yl)-5-methyl-2-phenyl-spiro[benzo[f]pyrazolo[1,5-a][1,4]diazepine-6,1′-cyclopropan]-4(5H)-one] | 100 to 1000 nM | 199 to 208 °C
COC(=O)c1ncccc1-c1ccc2c(c1)-n1cccc1C(=O)N(C)C21CC1 [Example 71, 5-Methyl-9-(2-methoxycarbonylpyridin-3-yl)-spiro[benzo[f]pyrrolo[1,2-a][1,4]diazepine-6,1′-cyclopropan]-4(5H)-one] | > 1000 nM | 198 to 203 °C
Cc1ncccc1-c1ccc2c(c1)-n1cc(C(=O)O)cc1C(=O)N(C)C21CC1 [Example 176, 5-Methyl-9-(2-methylpyridin-3-yl)-4-oxo-4,5-dihydrospiro[benzo[f]pyrrolo[1,2-a][1,4]diazepine-6,1′-cyclopropane]-2-carboxylic acid] | 100 to 1000 nM | > 250 °C
CN1C(=O)c2cccn2-c2cc(-c3cnn(C)c3)ccc2C12CC2 [Example 29, 5-Methyl-9-(1-methyl-pyrazol-4-yl)-spiro[benzo[f]pyrrolo[1,2-a][1,4]diazepine-6,1′-cyclopropan]-4(5H)-one] | 100 to 1000 nM | 75 to 83 °C
[2H]C([2H])([2H])N1C(=O)c2cccn2-c2cc(-c3ccc(F)nc3)ccc2C12CC2 [Example 55, 5-(Methyl-d3)-9-(6-fluoropyridin-3-yl)-spiro[benzo[f]pyrrolo[1,2-a][1,4]diazepine-6,1′-cyclopropan]-4(5H)-one] | < 100 nM | 166 to 178 °C
CN1C(=O)c2cccn2-c2cc(-c3cccc(-c4nnn[nH]4)c3)ccc2C12CC2 [Example 45, 5-Methyl-9-(3-(1H-tetrazol-5-yl)-phenyl)-spiro[benzo[f]pyrrolo[1,2-a][1,4]diazepine-6,1′-cyclopropan]-4(5H)-one] | 100 to 1000 nM | > 250 °C
Cc1cccc2c1-n1cccc1C(=O)N(C)C21CC1 [Example 90, 5,10-Dimethyl-spiro[benzo[f]pyrrolo[1,2-a][1,4]diazepine-6,1′-cyclopropan]-4(5H)-one] | > 1000 nM | 200 to 207 °C
Cc1n[nH]c(C)c1-c1ccc2c(c1)-n1cccc1C(=O)N(C)C21CC1 [Example 27, 5-Methyl-9-(3,5-dimethyl-1H-pyrazol-4-yl)-spiro[benzo[f]pyrrolo[1,2-a][1,4]diazepine-6,1′-cyclopropan]-4(5H)-one] | > 1000 nM | 115 to 125 °C
Cc1ncsc1-c1ccc2c(c1)-n1cccc1C(=O)N(C)C21CC1 [Example 50, 5-Methyl-9-(4-methylthiazol-5-yl)-spiro[benzo[f]pyrrolo[1,2-a][1,4]diazepine-6,1′-cyclopropan]-4(5H)-one] | 100 to 1000 nM | 205 to 212 °C
Cc1ncoc1-c1ccc2c(c1)-n1cccc1C(=O)N(C)C21CC1 [Example 49, 5-Methyl-9-(4-methyl-oxazol-5-yl)-spiro[benzo[f]pyrrolo[1,2-a][1,4]diazepine-6,1′-cyclopropan]-4(5H)-one] | > 1000 nM | 120 to 128 °C
CN1C(=O)c2cccn2-c2cc(-c3ccnc(C(F)(F)F)c3)ccc2C12CC2 [Example 35, 5-Methyl-9-(2-trifluoromethylpyridin-4-yl)-spiro[benzo[f]pyrrolo[1,2-a][1,4]diazepine-6,1′-cyclopropan]-4(5H)-one] | 100 to 1000 nM | 169 to 174 °C
CN1C(=O)c2cccn2-c2ccc(N3CCOCC3)cc2C12CC2 [Example 88, 8-Morpholin-4-yl-5-methyl-spiro[benzo[f]pyrrolo[1,2-a][1,4]diazepine-6,1′-cyclopropan]-4(5H)-one] | > 1000 nM | 140 to 146 °C
CN1C(=O)c2cc(-c3ccccc3)nn2-c2cc(C#N)ccc2C12CC2 [Example 137, 9-Cyano-5-methyl-2-phenyl-spiro[benzo[f]pyrazolo[1,5-a][1,4]diazepine-6,1′-cyclopropan]-4(5H)-one] | > 1000 nM | 196 to 200 °C
CN1C(=O)c2cc(-c3ccccc3)cn2-c2cc(-c3cccnc3C(F)(F)F)ccc2C12CC2 [Example 100, 5-Methyl-2-phenyl-9-(2-trifluoromethyl-pyridin-3-yl)-spiro[benzo[f]pyrrolo[1,2-a][1,4]diazepine-6,1′-cyclopropan]-4(5H)-one] | > 1000 nM | 199 to 204 °C
CN1C(=O)c2cccn2-c2cc(-c3ccnn3C)ccc2C12CC2 [Example 30, 5-Methyl-9-(1-methyl-pyrazol-5-yl)-spiro[benzo[f]pyrrolo[1,2-a][1,4]diazepine-6,1′-cyclopropan]-4(5H)-one] | 100 to 1000 nM | 214 to 220 °C

Continued, values first:

EC50 [1] | melting point | SMILES
100 to 1000 nM | 185 to 190 °C | CN1C(=O)c2cc(-c3ccccc3)nn2-c2cc(-c3cccc(C#N)c3)ccc2C12CC2 [Example 129, 9-(3-Cyano-phenyl)-5-methyl-2-phenyl-spiro[benzo[f]pyrazolo[1,5-a][1,4]diazepine-6,1′-cyclopropan]-4(5H)-one]
100 to 1000 nM | 200 to 204 °C | CN1C(=O)c2cc(-c3ccccc3)cn2-c2cc(-c3ccc(C#N)nc3)ccc2C12CC2 [Example 117, 5-Methyl-2-phenyl-9-(6-cyano-pyridin-3-yl)-spiro[benzo[f]pyrrolo[1,2-a][1,4]diazepine-6,1′-cyclopropan]-4(5H)-one]
< 100 nM | 198 to 202 °C | Cc1nc(F)ccc1-c1ccc2c(c1)-n1cccc1C(=O)N(C)C21CC1 [Example 32, 5-Methyl-9-(6-fluoro-2-methylpyridin-3-yl)-spiro[benzo[f]pyrrolo[1,2-a][1,4]diazepine-6,1′-cyclopropan]-4(5H)-one]
< 100 nM | > 250 °C | CN1C(=O)c2cc(-c3ncc[nH]3)cn2-c2cc(-c3ccc(F)nc3)ccc2C12CC2 [Example 186]
100 to 1000 nM | 182 to 189 °C | CN1C(=O)c2cc(-c3ccccc3)nn2-c2cc(-c3cccc(S(=O)(=O)N(C)C)c3)ccc2C12CC2 [Example 142, N,N-dimethyl-3-(5-methyl-4-oxo-2-phenyl-4,5-dihydrospiro[benzo[f]pyrazolo[1,5-a][1,4]diazepine-6,1′-cyclopropan]-9-yl)benzenesulfonamide]
100 to 1000 nM | 198 to 205 °C | CN1C(=O)c2cc(-c3ccccc3)cn2-c2cc(-c3cccc(S(=O)(=O)N(C)C)c3)ccc2C12CC2 [Example 141, N,N-dimethyl-3-(5-methyl-4-oxo-2-phenyl-4,5-dihydrospiro[benzo[f]pyrrolo[1,2-a][1,4]diazepine-6,1′-cyclopropan]-9-yl)benzenesulfonamide]
100 to 1000 nM | 200 to 210 °C | Cc1ncccc1-c1ccc2c(c1)-n1cccc1C(=O)N(C)C21CC1 [Example 20, 5-Methyl-9-(2-methyl-pyridin-3-yl)-spiro[benzo[f]pyrrolo[1,2-a][1,4]diazepine-6,1′-cyclopropan]-4(5H)-one]
100 to 1000 nM | 143 to 149 °C | CN1C(=O)c2cc(-c3ccccc3)cn2-c2cc(-c3cccnc3F)ccc2C12CC2 [Example 113, 5-Methyl-2-phenyl-9-(2-fluoro-pyridin-3-yl)-spiro[benzo[f]pyrrolo[1,2-a][1,4]diazepine-6,1′-cyclopropan]-4(5H)-one]
> 1000 nM | 127 to 130 °C | CN1C(=O)c2cccn2-c2ccccc2C1(C)C [Example 221, 5,6,6-Trimethyl-5,6-dihydro-benzo[f]pyrrolo[1,2-a][1,4]diazepin-4-one]
> 1000 nM | 126 to 134 °C | Cc1cccc2c1C1(CC1)N(C)C(=O)c1cccn1-2 [Example 89, 5,7-Dimethyl-spiro[benzo[f]pyrrolo[1,2-a][1,4]diazepine-6,1′-cyclopropan]-4(5H)-one]
> 1000 nM | 67 to 78 °C | CN1C(=O)c2cccn2-c2cc(-c3cnccc3C(F)(F)F)ccc2C12CC2 [Example 37, 5-Methyl-9-(4-trifluoromethylpyridin-3-yl)-spiro[benzo[f]pyrrolo[1,2-a][1,4]diazepine-6,1′-cyclopropan]-4(5H)-one]
